From US20070037887A1, “Blockade of mtor to prevent a hormonal adaptive response” (University of Virginia Patent Foundation, priority 2003, published 2007)

Columns and labels:
mTOR-mLST8 = assay: Coimmunoprecipitation of mLST8 with mTOR from 293T cells incubated with compound; assay type: cell-based; conditions: overexpressed in 293T cells, 1 h
Description: (§1) FIG. 11A & 11B represent data showing FTS inhibits PHAS-I phosphorylation and promotes dissociation of the mTOR-raptor complex in 293T cells. 293T cells were transfected with pcDNA3AU1-mTOR, pcDNA33HARaptor, pcDNA33HA-mLST8, and pCMV-Tag3APHAS-I (FIG. 11A). After 18 h the cells were incubated for 1 h with increasing concentrations of FTS before extracts were prepared. A sample of each extract was subjected to SDS-PAGE and immunoblotted to detect PHAS-I or PThr^36/45. AU1-mTOR was also immunoprecipitated from each extract, and immune complexes were subjected to SDSPAGE and immunoblotted with mTAb2, to detect mTOR, and with anti-HA antibodies, to detect HA-mLST8 and HA-raptor. Nontransfected 293T cells were incubated with increasing concentrations of FTS for 1 h before extracts were prepared. mTOR was immunoprecipitated with mTAb1, and samples were subjected to SDS-PAGE.
(§2) FIGS. 12A & 12B represent data showing the effects of incubating cells with increasing concentrations of FTS and GTS on mTOR activity and mTOR association with raptor and mLST8. AU1-mTOR, HA-raptor, and HAmLST8 were overexpressed in 293T cells. The cells were then incubated for 1 h with increasing concentrations of FTS (●, ▴, ▪) or GTS (∘, Δ, □) before extracts were prepared. Immunoprecipitations were then conducted with anti-AU1 antibodies. mTOR kinase activity (●, ∘) was determined by measuring ^32P incorporation into [His^6]PHAS-I in immune complex kinases assays performed with [γ-^32P]ATP. The relative amounts of HA-raptor (▴, Δ) and HA-mLST8 (▪, □) that coimmunoprecipitated with AU1-mTOR were determined after immunoblotting with anti-HA antibodies. The results (mean values±S.E. from 3 experiments) are expressed as percentages of the mTOR activity (FIG. 12A) or coimmunoprecipitating proteins (FIG. 12B) from samples incubated without FTS or GTS, and have been corrected for the amounts of AU1-mTOR immunoprecipitated.
To investigate further the inhibitory effects of FTS on mTOR signaling, the effect of the drug on the association of mTOR, raptor, and mLST8 was determined. […]

LTED cells = assay: Apoptosis ELISA (Cell Death Detection Kit), LTED cells; assay type: cell-based, human; conditions: three day treatment
Description: FIG. 6 is a bar graph portraying data representing the induction of apoptosis in MCF-7 and LTED cells by FTS. Eighty thousand MCF-7 and LTED cells were plated into each well of 12-well plates in their culture media. Two days later, the cells were treated with FTS for 3 days. Apoptosis was measured using a Cell Death Detection Kit from Roche Molecular Biochemicals. Parallel plates subjected to identical treatment were prepared for cell counting. The results were expressed as the values of optical density at 405 nm per 10,000 cells.
Applicants postulated that these cells might also have become sensitized to the pro-apoptotic effects of estradiol. To test this hypothesis, an ELISA assay was used to assess apoptosis and to compare the effects of estradiol in wild-type and LTED cells. […] The presence of apoptosis in LTED cells was confirmed by the measurement of annexin V and the use of time-lapse microscopy.
The effect of a three day treatment with FTS on apoptosis in MCF-7 and LTED cells was examined using the ELISA assay for quantitation. […] LTED cells were much more sensitive than MCF-7 cells to the apoptotic effects of FTS.

[1] = test system: ERK1/2 MAP kinase, Akt, p70 S6 kinase, PHAS-I phosphorylation in MCF-7 cells; assay: Western analysis of serum-stimulated kinase phosphorylation, MCF-7 cells; assay type: cell-based, human; conditions: FTS 24 h
Description: FIGS. 7A-7D represent data showing the effect of FTS on serum-stimulated activation of MAP kinase, PI3 kinase, and mTOR. Subconfluent MCF-7 and LTED cells grown in 60 mm dishes were treated with FTS in their culture media for 24 h. Cells were then harvested and cell lysate prepared. Phosphorylation of ERK1/2 MAP kinase (FIG. 7A), Akt at Ser^473 (FIG. 7B), p70 S6 kinase at Thr^389 (FIG. 7C), and PHAS-I at Ser^65 (FIG. 7D) was detected by Western analysis using specific antibodies and quantitated by densitometry scanning.
The levels of phosphorylated ERK1/2 MAPK, Akt (Ser^473), p70S6K (Thr^389) and PHAS-1 (Ser^65) were consistently elevated in LTED cells compared to those in wild type MCF-7 cells as indicated by Western blot analysis using specific antibodies against phosphorylated ERK 1/2 (FIG. 7A), Akt (FIG. 7B), p70S6 kinase (FIG. 7C) and PHAS-1 (FIG. 7D). […] (FIGS. 7C & 7D).

mTOR-raptor complex = target: T1, mTOR-raptor complex (Homo sapiens, UniProt P42345+Q8N122); assay: Coimmunoprecipitation of raptor with mTOR from 293T cells incubated with compound; assay type: cell-based; conditions: nontransfected 293T cells
T1 construct: expressed in transfected cells; host or cells: 293T
Description: as §1, §2
To investigate further the inhibitory effects of FTS on mTOR signaling, the effect of the drug on the association of mTOR, raptor, and mLST8 was determined. AU1-mTOR and HA-tagged forms of raptor and mLST8 were overexpressed in 293T cells, which were then incubated with increasing concentrations of FTS before AU1-mTOR was immunoprecipitated with anti-AU1 antibodies. Immunoblots were prepared with anti-HA antibodies to assess the relative amounts of HA-raptor and HA-mLST8 that coimmunoprecipitated with AU 1-mTOR (FIG. 11A).
Results obtained with overexpressed proteins are not necessarily representative of responses of endogenous proteins. Therefore, experiments were conducted to investigate the effect FTS on the endogenous TORC1 in nontransfected cells. […]

[2] = doses needed to inhibit tumor growth; cited from earlier work

Row | Structure (SMILES) | amount of HA-mLST8 associated with AU1-mTOR (mTOR-mLST8) | induction of apoptosis (LTED cells; FTS 75 μM) | induction of apoptosis (LTED cells; FTS 20 and 50 μM) | fall of phosphorylated ERK1/2 and 4E BP 1 [1] | p70 S 6 kinase and phospho-AKT [1] | amount of endogenous raptor that coimmunoprecipitated with mTOR (mTOR-raptor complex) | animal weight [2] | toxicity [2]
1 | CC(C)=CCC/C(C)=C/CC/C(C)=C/CSc1ccccc1C(=O)O [FTS, farnesylthiosalicylic acid] | did not appear to change | dramatic increase in apoptosis | did not induce apoptosis | approximately 50% | inconsistent decrements | markedly decreased | does not cause a reduction of animal weight | non-toxic
2 | CC(C)=CCC/C(C)=C/CSc1ccccc1C(=O)O [GTS, S-geranylthiosalicylic acid, reference compound] | relatively little effect | – | – | – | – | – | – | –
